The test system of one data set is B. subtilis (KCTC 3068). It counts as cell-based, Bacillus subtilis. To be noted: broth microdilution in MHB, 37 °C, 24 h, 100% inhibition of growth. As for the experimental part: (§1) The antibacterial efficacy of the synthesized peptides was evaluated by determining the minimal inhibitory concentrations (MICs) against six standard bacterial strains and five drug-resistant bacterial strains using the Clinical and Laboratory Standards Institute (CLSI) microdilution method. Melittin served as the positive control.
(§2) The minimal inhibitory concentrations (MICs) of the peptides against bacterial strains were determined using a modified broth-microdilution method in accordance with the National Committee for Clinical Laboratory Standards (NCCLS) guidelines. Overnight cultures were diluted in cation-adjusted Mueller–Hinton Broth (MHB) to achieve an inoculum density of 2 × 10^6 CFU/mL. A two-fold serial dilution of the peptide solution (100 μL) was introduced into microtiter plates, followed by the addition of 100 μL of bacterial suspension. The plates were then incubated at 37 °C for 24 h to determine the MICs. Wells containing only culture media served as negative controls, while those with added bacteria functioned as positive controls. The MIC, expressed in μM, was defined as the lowest peptide concentration that prevented visible bacterial growth. This protocol was also employed to determine MICs in the presence of physiological salts (150 mM of NaCl, 4.5 mM of KCl, 6 μM of NH4Cl, 1 mM of MgCl2, 2.5 mM of CaCl2, and 4 μM of FeCl3) and 20% human serum to assess the peptides’ efficacy under conditions more closely resembling physiological environments. All experiments were conducted in triplicate and repeated three times independently to ensure reproducibility and statistical significance of the results.

The subject of data set [1] is sheep red blood cells (sRBCs). As to the kind of experiment: Hemolytic activity assay. It counts as cell-based. To be noted: 4% (v/v) sheep red blood cells in PBS, 1 h, 37 °C; 1 to 256 μM tested. As for the experimental part:
To assess toxicity in mammalian cells, we evaluated the hemolytic activity of the peptides on sheep red blood cells (sRBCs). […] The therapeutic index (TI), a measure commonly employed to evaluate the cell selectivity of antibacterial agents, was calculated as the ratio of the concentration causing 10% hemolysis of sRBCs (HC10) to the GM [19, 20, 21, 22].
The hemolytic activity of the peptides was tested through hemolysis assay of sheep red blood cells (sRBCs). The sRBCs were diluted in PBS to achieve a 4% (v/v) concentration. Subsequently, 100 μL of peptide solutions, ranging from 1 to 256 μM, was dispensed into a 96-well plate containing an equal volume of the erythrocyte suspension. After incubating for 1 h at 37 °C and centrifuging at 1000× g for 10 min, 100 μL of the supernatant was transferred to a new 96-well plate. Hemoglobin release was quantified using a microplate reader at a wavelength of […]. The percentage of hemolysis was calculated using percentage hemolysis = 100 × [[…]], where A represents the absorbance of the peptide-treated sample at 540 nm, A0 corresponds to the absorbance value representing 0% hemolysis in PBS, and At corresponds to the absorbance value representing 100% hemolysis in 0.1% Triton X-100.

Data set [2] has as its system S. typhimurium (KCTC 1926). The class given is cell-based, Salmonella typhimurium. To be noted: broth microdilution in MHB, 37 °C, 24 h, 100% inhibition of growth. As to the method:
as §1, §2

Data set [3] concerns preformed MDRPA (CCARM 2095) biofilms. The class given is cell-based, multidrug-resistant Pseudomonas aeruginosa. To be noted: 24 h treatment; for MBEC50: 50% eradication; for MBEC90: 90% eradication. As for the experimental part: While preventing biofilm formation on surfaces is crucial, treating established biofilm infections presents a significant challenge due to the extracellular polymeric substance (EPS) matrix hindering antibiotic penetration and the high cell density within mature biofilms. To address this challenge, we evaluated the ability of BP100 and its analogs to eradicate established MDRPA biofilms over a 24 h period. The minimum biofilm eradication concentration (MBEC90) was determined using crystal violet staining as the lowest concentration that reduced biomass by more than 90%. Among these peptides, BP5, BP6, BP7, BP8, BP9, BP11, and BP13 eradicated preformed MDRPA biofilms by more than 90% at a concentration of 8 μM (Figure 3c,d and Table 3).
The minimal biofilm eradication concentration (MBEC) for peptides against the multidrug-resistant Pseudomonas aeruginosa (MDRPA) (CCARM 2095) strain was assessed using the Calgary Biofilm Device (CBD), supplied by Innovotech, Edmonton, AB, Canada. A bacterial suspension with a density of (1 × 10^6) CFU/mL in (150 µL) of Luria–Bertani (LB) media was dispensed into each well of a 96-well microtiter plate, which was equipped with a peg lid (Innovotech, product code: 19111). This plate was incubated at 37 °C for 24 h with agitation at 110 rpm, promoting biofilm formation on the pegs. Subsequently, the peg lid was washed with phosphate-buffered saline (PBS, 0.01 M) and relocated to a fresh plate containing varying peptide concentrations (200 µL per well). The biofilms were then subjected to these peptides under the same incubation conditions. After another PBS rinse, the peg lid was moved to a recovery plate filled with (200 µL) of LB media per well. To detach the biofilms from the pegs, the recovery plate underwent sonication in a water bath for 10 to 15 min. Finally, the recovery plate was incubated at 37 °C for 24 h with agitation at 110 rpm, allowing any surviving bacteria to proliferate and cause turbidity. The MBEC is defined as the lowest concentration of peptides that inhibited turbidity formation in the recovery plate in comparison to sterility controls. This experiment was conducted in triplicate, and the median value from each trial was recorded.

The subject of data set [4] is S. epidermidis (KCTC 1917). It counts as cell-based, Staphylococcus epidermidis. To be noted: broth microdilution in MHB, 37 °C, 24 h, 100% inhibition of growth. As for the experimental part:
as §1, §2

For another data set, the system named is VREF (ATCC 51559). The class given is cell-based, vancomycin-resistant Enterococcus faecium. To be noted: broth microdilution in MHB, 37 °C, 24 h, 100% inhibition of growth. As for the experimental part: as §1, §2
The next data set relates to E. coli (KCTC 1682). It counts as cell-based, Escherichia coli. To be noted: broth microdilution in MHB, 37 °C, 24 h, 100% inhibition of growth. As to the method:
as §1, §2

A further data set deals with S. aureus (KCTC 1621). It counts as cell-based, Staphylococcus aureus. To be noted: broth microdilution in MHB, 37 °C, 24 h, 100% inhibition of growth. As for the experimental part:
as §1, §2

Another data set has as its system MRSA (CCARM 3090). It counts as cell-based, methicillin-resistant Staphylococcus aureus. To be noted: broth microdilution in MHB, 37 °C, 24 h, 100% inhibition of growth. As for the experimental part:
as §1, §2

In the next data set the test system is MRSA (CCARM 3089). It counts as cell-based, methicillin-resistant Staphylococcus aureus. To be noted: broth microdilution in MHB, 37 °C, 24 h, 100% inhibition of growth. As for the experimental part: as §1, §2

Where no end group is shown, it is not given here. Where only a bound is given, the exact number is not on record here.

Regarding KKLFKKWLKYW-NH2 [BP10], the “Minimal Inhibitory Concentration (MIC)” value in the data set with B. subtilis (KCTC 3068) turned out to be 16 µM; in data set [2], 8 µM; in data set [4], 8 µM; in the data set with VREF (ATCC 51559) it was 128 µM; in the data set with E. coli (KCTC 1682), 8 µM; with S. aureus (KCTC 1621) it was 8 µM. For the same substance, the “Minimal Inhibitory Concentration (MIC)” value with MRSA (CCARM 3090) and in the data set with MRSA (CCARM 3089) was 64 µM throughout. Moreover, in [1], the “HC10 (peptide concentration that caused 10% hemolysis)” value was greater than 256 µM. In data set [3], this substance displayed an MBEC50 of 8 to 16 µM. Further, the MBEC90 in [3] came to 16 µM.

For KKLFKKWWKWL-NH2 [BP16], the “Minimal Inhibitory Concentration (MIC)” value is 16 µM in the data set with B. subtilis (KCTC 3068); 16 µM in data set [2]; 16 µM in data set [4]; 64 µM with VREF (ATCC 51559); 16 µM with E. coli (KCTC 1682); 16 µM in the data set with S. aureus (KCTC 1621). Moreover, the “Minimal Inhibitory Concentration (MIC)” value is 128 µM in the data set with MRSA (CCARM 3090) and 16 µM in the data set on MRSA (CCARM 3089). Besides, in data set [1], the “HC10 (peptide concentration that caused 10% hemolysis)” value was greater than 256 µM. Besides, the MBEC50 in data set [3] is 16 µM. The MBEC90 in [3] was found to be 32 µM.

Regarding KKLFKKWWKYL-NH2 [BP9], the “Minimal Inhibitory Concentration (MIC)” value with B. subtilis (KCTC 3068) came to 16 µM; in data set [2], 4 µM; in data set [4] it was 4 µM; in the data set on VREF (ATCC 51559), 64 µM; in the data set on E. coli (KCTC 1682), 4 µM; in the data set with S. aureus (KCTC 1621), 8 µM. The “Minimal Inhibitory Concentration (MIC)” value with MRSA (CCARM 3090) and with MRSA (CCARM 3089) was 64 µM in each case. Besides, the “HC10 (peptide concentration that caused 10% hemolysis)” value in data set [1] was greater than 256 µM. The MBEC50 in data set [3] was 4 µM. Further, in data set [3], the MBEC90 turned out to be 8 µM.

On to KKLWKKILKWL-NH2 [BP8], for which the “Minimal Inhibitory Concentration (MIC)” value in the data set with B. subtilis (KCTC 3068) was 8 µM; in [2], 4 µM; in [4], 2 µM; in the data set on VREF (ATCC 51559), 16 µM; with E. coli (KCTC 1682), 2 µM; in the data set with S. aureus (KCTC 1621), 4 µM. Also, the “Minimal Inhibitory Concentration (MIC)” value in the data set with MRSA (CCARM 3090) and with MRSA (CCARM 3089) was 16 µM each time. The “HC10 (peptide concentration that caused 10% hemolysis)” value in data set [1] was greater than 256 µM. Moreover, the MBEC50 in data set [3] is 2 µM. In data set [3], the MBEC90 was determined as 8 µM.

Turning to KKLWKKIWKYL-NH2 [BP7], the “Minimal Inhibitory Concentration (MIC)” value is 4 µM with B. subtilis (KCTC 3068); 2 µM in data set [2]; 2 µM in data set [4]; 32 µM in the data set with VREF (ATCC 51559); 4 µM in the data set on E. coli (KCTC 1682); 2 µM in the data set on S. aureus (KCTC 1621). The “Minimal Inhibitory Concentration (MIC)” value in the data set with MRSA (CCARM 3090) was determined as 32 µM; in the data set with MRSA (CCARM 3089), 8 µM. Also, the “HC10 (peptide concentration that caused 10% hemolysis)” value in data set [1] is greater than 256 µM. The same substance yielded an MBEC50 in data set [3] of 4 to 8 µM. In data set [3], this substance had an MBEC90 of 8 µM.

As to KKLWKKIWKYW-NH2 [BP15], the “Minimal Inhibitory Concentration (MIC)” value in the data set on B. subtilis (KCTC 3068) came out at 4 µM; in [2], 4 µM; in [4], 4 µM; with VREF (ATCC 51559), 64 µM; with E. coli (KCTC 1682), 4 µM; with S. aureus (KCTC 1621) it was 2 µM. Moreover, the “Minimal Inhibitory Concentration (MIC)” value amounted to 64 µM in the data set on MRSA (CCARM 3090) and 16 µM in the data set on MRSA (CCARM 3089). Besides, the “HC10 (peptide concentration that caused 10% hemolysis)” value in [1] is greater than 256 µM. Besides, in [3], the MBEC50 is 8 to 16 µM. The substance also registered an MBEC90 in data set [3] of 16 µM.

For the substance KKLWKKWLKYW-NH2 [BP14], the “Minimal Inhibitory Concentration (MIC)” value with B. subtilis (KCTC 3068) is 4 µM; in data set [2], 8 µM; in [4], 2 µM; with VREF (ATCC 51559), 64 µM; in the data set on E. coli (KCTC 1682), 4 µM; in the data set on S. aureus (KCTC 1621), 2 µM. The “Minimal Inhibitory Concentration (MIC)” value in the data set on MRSA (CCARM 3090) came out at 32 µM; with MRSA (CCARM 3089), 16 µM. Further, the “HC10 (peptide concentration that caused 10% hemolysis)” value in [1] is greater than 256 µM. The substance also displayed an MBEC50 in data set [3] of 8 to 16 µM. The MBEC90 in data set [3] was found to be 16 µM.

In the case of KKWFKKILKWL-NH2 [BP6], the “Minimal Inhibitory Concentration (MIC)” value worked out at 4 µM with B. subtilis (KCTC 3068); 4 µM in [2]; 2 µM in data set [4]; 8 µM with VREF (ATCC 51559); 4 µM in the data set on E. coli (KCTC 1682); 2 µM in the data set on S. aureus (KCTC 1621). The entries for the “Minimal Inhibitory Concentration (MIC)” value in the data set with MRSA (CCARM 3090) and in the data set on MRSA (CCARM 3089) were 16 µM and 8 µM, respectively. For the same substance, the “HC10 (peptide concentration that caused 10% hemolysis)” value in data set [1] was greater than 256 µM. Moreover, the MBEC50 in data set [3] is 4 µM. The MBEC90 in data set [3] turned out to be 8 µM.

In the case of KKWFKKWLKWL-NH2 [BP13], the “Minimal Inhibitory Concentration (MIC)” value in the data set with B. subtilis (KCTC 3068) was 8 µM; in data set [2], 8 µM; in data set [4], 8 µM; in the data set with VREF (ATCC 51559) it was 16 µM; in the data set with E. coli (KCTC 1682) it was 8 µM; in the data set on S. aureus (KCTC 1621) it was 4 µM. Further, the “Minimal Inhibitory Concentration (MIC)” value with MRSA (CCARM 3090) and in the data set with MRSA (CCARM 3089) was 32 µM in each case. The “HC10 (peptide concentration that caused 10% hemolysis)” value in data set [1] was greater than 256 µM. In data set [3], the MBEC50 worked out at 4 µM. The same substance yielded an MBEC90 in data set [3] of 8 µM.

The values are drawn from article PMC11596392, “Enhanced Antibacterial, Anti-Inflammatory, and Antibiofilm Activities of Tryptophan-Substituted Peptides Derived from Cecropin A-Melittin Hybrid Peptide BP100” (Molecules, 2024).
